Results: ChEMBL document CHEMBL4382286, “Nongenotoxic 3-Nitroimidazo[1,2-a]pyridines Are NTR1 Substrates That Display Potent in Vitro Antileishmanial Activity” (ACS Med Chem Lett, 2019)

How the values were obtained:
[1] = Cytotoxicity against human HepG2 cells after 72 hrs by MTT assay; format: cell-based
Leishmania donovani [2] = test: Antileishmanial activity against promastigote stage of Leishmania donovani MHOM/IN/00/DEVI after 72 hrs by MTT assay; format: functional, organism-based
[3] = Selectivity index, ratio of CC50 for human HepG2 cells to IC50 for promastigote stage of Leishmania donovani MHOM/IN/00/DEVI; format: toxicity; conditions: read-out: Ratio CC50/IC50
Plasmodium falciparum = test: Antiplasmodial activity against chloroquine/proguanil/pyrimethamine-resistant synchronized stage of Plasmodium falciparum K1 after 72 hrs by SYBR green1 staining based spectrophotometric method; format: functional, organism-based; conditions: K1, 72 h
[4] = Solubility of the compound in RPMI medium at 4 to 6 uM; format: physicochemical
Leishmania major [5] = test: Antileishmanial activity against intracellular amastigote stage of Leishmania major infected in human THP1 cells after 120 hrs by giemsa staining based microscopic analysis; format: functional, organism-based; conditions: THP-1, 120 h
Leishmania major [6] = test: Antileishmanial activity against promastigote stage of Leishmania major MHOM/IL/81/Friedlin after 72 hrs by MTT assay; format: functional, organism-based
Trypanosoma cruzi = test: Antitrypanosomal activity against Trypanosoma cruzi MHOM/BR/78/Silvio cloneX10/7A epimastigotes measured after 4 days by resazurin dye based fluorescence assay; format: functional, organism-based; conditions: 96 h
Leishmania donovani [7] = test: Antileishmanial activity against intracellular amastigote stage of Leishmania donovani infected in human THP1 cells after 120 hrs by giemsa staining based microscopic analysis; format: functional, organism-based; conditions: THP-1, 120 h
[8] = Cytotoxicity against human THP1 cells after 72 hrs by MTT assay; format: cell-based; conditions: THP-1 cells
Trichomonas vaginalis = test: Antiprotozoal activity against Trichomonas vaginalis TVR87 measured after 48 hrs by trypan blue assay; format: functional, organism-based
Leishmania infantum = test: Antileishmanial activity against Leishmania infantum axenic amastigotes after 48 hrs by steady-glo luciferase reporter gene assay; format: functional, organism-based
[9] = Solubility of the compound in RPMI medium at >62.5 uM; format: physicochemical
[10] = test system: Trypanosoma brucei brucei; test: Antitrypanosomal activity against trypomastigote stage of Trypanosoma brucei brucei AnTat 1.9 assessed as decrease in parasite viability after 69 hrs by Alamar Blue assay; format: functional, organism-based; conditions: AnTat 1.9, 69 h

| SMILES | CC50 at 72 h [1] [µM] | IC50 (Leishmania donovani [2]) [nM] | selectivity ratio [3] | solubility [4] | also measured |
| --- | --- | --- | --- | --- | --- |
| O=[N+]([O-])c1c(CS(=O)(=O)c2ccccc2)nc2c(Sc3ccccc3F)cc(Cl)cn12 | > 5 | 1200 | > 4.2 |  |  |
| O=C1C(O)=C([C@H]2CC[C@H](c3ccc(Cl)cc3)CC2)C(=O)c2ccccc21 [ATOVAQUONE] |  |  |  |  | IC50 (Plasmodium falciparum): 1 nM |
| O=[N+]([O-])c1c(CS(=O)(=O)c2ccccc2)nc2c(SCc3ccc(Br)cc3)cc(Cl)cn12 |  |  |  | Insoluble |  |
| O=[N+]([O-])c1c(CS(=O)(=O)c2ccccc2)nc2c(SCc3ccccc3)cc(Cl)cn12 |  |  |  | Insoluble |  |
| O=[N+]([O-])c1c(CS(=O)(=O)c2ccccc2)nc2c(Sc3cccc(Cl)c3)cc(Cl)cn12 | > 3.9 | 700 | > 3.6 |  |  |
| Cc1ccccc1Sc1cc(Cl)cn2c([N+](=O)[O-])c(CS(=O)(=O)c3ccccc3)nc12 | > 3.9 | 1700 | > 1.5 |  |  |
| C[C@@H]1[C@H](O)[C@@H](C)/C=C/C=C/C=C/C=C/C=C/C=C/C=C/[C@H](O[C@@H]2O[C@H](C)[C@@H](O)[C@H](N)[C@@H]2O)C[C@@H]2O[C@](O)(C[C@@H](O)C[C@@H](O)[C@H](O)CC[C@@H](O)C[C@@H](O)CC(=O)O[C@H]1C)C[C@H](O)[C@H]2C(=O)O [AMPHOTERICIN B] |  |  |  |  | IC50 (Leishmania major [5]): 200 nM; IC50 (Leishmania major [6]): 600 nM |
| O=[N+]([O-])c1c(CS(=O)(=O)c2ccccc2)nc2c(Sc3ccc(F)cc3)cc(Cl)cn12 | > 5 | 1300 | > 3.8 |  |  |
| COc1cccc(Sc2cc(Cl)cn3c([N+](=O)[O-])c(CS(=O)(=O)c4ccccc4)nc23)c1 | > 15.6 | 2300 | > 6.8 | Insoluble |  |
| O=[N+]([O-])c1c(CS(=O)(=O)c2ccccc2)nc2c(Sc3cccc(F)c3)cc(Cl)cn12 | > 3.9 | 1200 | > 2.1 |  |  |
| O=C(Cn1ccnc1[N+](=O)[O-])NCc1ccccc1 [BENZNIDAZOLE] |  |  |  |  | IC50 (Trypanosoma cruzi): 1.2 µM |
| O=[N+]([O-])c1c(CS(=O)(=O)c2ccccc2)nc2c(Sc3ccccc3C(F)(F)F)cc(Cl)cn12 | > 4.1 | 1500 | > 2.7 |  |  |
| CSc1ccc(OCc2ncc([N+](=O)[O-])n2C)cc1 [FEXINIDAZOLE] | > 200 |  |  |  | IC50 (Leishmania donovani [7]): > 50 µM; CC50 at 72 h [8]: > 62.5 µM; IC50 (Trypanosoma cruzi): 8.9 µM |
| Cc1cccc(Sc2cc(Cl)cn3c([N+](=O)[O-])c(CS(=O)(=O)c4ccccc4)nc23)c1 | > 5.6 | 1400 | > 4 |  |  |
| CC(C)c1ccc(Sc2cc(Cl)cn3c([N+](=O)[O-])c(CS(=O)(=O)c4ccccc4)nc23)cc1 | > 25 | 1600 | > 15.6 | Insoluble |  |
| O=[N+]([O-])c1c(CS(=O)(=O)c2ccccc2)nc2c(Sc3ccc(Cl)cc3Cl)cc(Cl)cn12 | > 3.9 | 1700 | > 2.2 |  |  |

| SMILES | CC50 at 72 h [1] [µM] | IC50 (Leishmania donovani [2]) [nM] | selectivity ratio [3] | solubility [4] | also measured |
| --- | --- | --- | --- | --- | --- |
| O=[N+]([O-])c1c(CS(=O)(=O)c2ccccc2)nc2c(Sc3ccccc3Cl)cc(Cl)cn12 | > 5 | 1400 | > 3.6 |  |  |
| O=[N+]([O-])c1c(CS(=O)(=O)c2ccccc2)nc2c(Sc3ccc(C(F)(F)F)cc3)cc(Cl)cn12 | > 3.9 | 2100 | > 1.5 |  |  |
| O=[N+]([O-])c1c(CS(=O)(=O)c2ccccc2)nc2c(Sc3cc(Cl)ccc3Cl)cc(Cl)cn12 | > 3.9 | 1300 | > 1.5 |  |  |
| Cc1ncc([N+](=O)[O-])n1CCO [METRONIDAZOLE] |  |  |  |  | IC50 (Trichomonas vaginalis): 4.2 µM |
| O=[N+]([O-])c1c(CS(=O)(=O)c2ccccc2)nc2c(Sc3cccc(C(F)(F)F)c3)cc(Cl)cn12 | > 3.9 | 1300 | > 2.4 |  |  |
| COc1ccc(Sc2cc(Cl)cn3c([N+](=O)[O-])c(CS(=O)(=O)c4ccccc4)nc23)cc1 | > 62.5 | 1500 | > 41.7 | Soluble |  |
| COc1ccc(CSc2cc(Cl)cn3c([N+](=O)[O-])c(CS(=O)(=O)c4ccccc4)nc23)cc1 |  |  |  | Insoluble |  |
| Cc1ccc(Sc2cc(Cl)cn3c([N+](=O)[O-])c(CS(=O)(=O)c4ccccc4)nc23)cc1 | > 3.9 | 1400 | > 2.2 |  |  |
| N=C(N)c1ccc(OCCCCCOc2ccc(C(=N)N)cc2)cc1 [PENTAMIDINE] |  |  | 0.4 |  |  |
| CC1CS(=O)(=O)CCN1/N=C/c1ccc([N+](=O)[O-])o1 (stereo not drawn) [NIFURTIMOX] |  |  |  |  | IC50 (Trypanosoma cruzi): 0.3 µM |
| O=[N+]([O-])c1c(CS(=O)(=O)c2ccccc2)nc2c(SCc3ccc(Cl)cc3)cc(Cl)cn12 |  |  |  | Insoluble |  |
| O=C(O)Cc1ccc(Sc2cc(Cl)cn3c([N+](=O)[O-])c(CS(=O)(=O)c4ccccc4)nc23)cc1 | > 62.5 | 65600 | > 1 | Soluble |  |
| COc1ccccc1Sc1cc(Cl)cn2c([N+](=O)[O-])c(CS(=O)(=O)c3ccccc3)nc12 | > 50 | 2300 | > 21.7 |  |  |
| O=[N+]([O-])c1c(CS(=O)(=O)c2ccccc2)nc2c(Sc3cccc(Cl)c3Cl)cc(Cl)cn12 | > 25 | 2000 | > 12.5 | Insoluble |  |
| O=[N+]([O-])c1c(CS(=O)(=O)c2ccccc2)nc2c(Sc3ccc(Br)cc3)cc(Cl)cn12 | > 62.5 | 1000 | > 62.5 | Soluble | IC50 (Leishmania major [5]): 5000 nM; IC50 (Leishmania donovani [7]): 3.5 µM; CC50 at 72 h [8]: > 62.5 µM; IC50 (Leishmania major [6]): 1300 nM; IC50 (Trichomonas vaginalis): 4.6 to 5 µM; IC50 (Leishmania infantum): 9 µM; solubility [9]: Insoluble; IC50 [10]: 3.8 µM; IC50 (Trypanosoma cruzi): 6.2 µM |
| O=[N+]([O-])c1c(CS(=O)(=O)c2ccccc2)nc2c(Sc3ccccc3)cc(Cl)cn12 | > 3.9 | 1700 | > 2.3 |  |  |
